Target: SARS-CoV 3CL protease (Severe acute respiratory syndrome coronavirus, UniProt P0C6X7)
Assay: biochemical
Details: IC50 (inhibition of SARS-CoV 3CL protease)

| SMILES | IC50 [µM] |
| --- | --- |
| CCCCCCCCC(=O)N[C@@H](CC(C)C)C(=O)NC(Cc1ccccc1)C(=O)C(F)(F)F (mixture of isomers) [Compound 5g, 3-{N-[N-CH3(CH2)7(C?O)-L-Leu]}-4-phenyl-1,1,1-trifluorobutan-2-one] | > 50 |
| C[C@H](NC(=O)CC[C@H](NC(=O)OC(C)(C)C)C(=O)OC(C)(C)C)C(=O)NCC(=O)C(F)(F)F [Compound 5d, 3-{N-[N-tert-Butoxycarbonyl-L-γGlu(OtBu)-L-Ala]}-1,1,1-trifluoropropan-2-one] | 40 |
